The values that follow come from patent US20080181874A1, “CELL COMPOSITION AND METHOD FOR TREATING CANCER” (priority 2007, published 2008).

Series [1] has as its system viable tumor cells from the right chest wall lesion (mammary carcinoma cells). Kind of series: In vitro drug response of fresh tumor cells (DISC, MTT and redox assays). Type of series: cell-based, human. Set-up: key to ASSAY RESULT: Sensitive: A cancer cell is said to be sensitive to a drug when the drug inhibits the cell growth or proliferation of the cell to a greater degree than is expected for an appropriate control; Resistant: A cancer cell is said to be sensitive to a drug when the drug inhibits the cell growth or proliferation of the cell to a lesser degree than is expected for an appropriate control. Conditions: for ASSAY RESULT: compared with a database of assays with similar technical characteristics; for ASSAY PREDICTED RESPONSE PROBABILITY: predicted from the assay result; for activity in vitro (in words): summary of the table. The protocol: An unfixed portion of the tumor was further analyzed for response to several drugs. A specimen consisted of 1 piece of yellow, white, and red tissue, obtained from the right chest wall lesion. The piece was soft and sticky in texture, measured 0.8×1.4 cm, and weighed 0.47 gm. The specimen was minced to individual pieces smaller than one mm with surgical scissors and digested for 1.3 hours with collagenase-DNAse. Viable tumor cells were enriched by Ficoll-diatriozate centrifugation. Cytospin slides were prepared, air-dried, and stained with Fast Green/Hamatoxyline-eosin. On this cytology preparation obtained from mechanically-dissociated, enzyme-digested tissue, there was a collection of somewhat pleomorphic tumor cells, consistent with mammary carcinoma cells. Tumor cells were present as loose cell clusters (60% of total tumor cells) and, less commonly, as discohesive single cells (40% of total tumor cells). The tumor cells measured 22-25 microns in diameter and had N/N+C ratios of 0.6-0.8. […] Nucleoli were variably prominent. There were no cells with large clear globular areas or secretory material within the cytoplasm. There was slight cytoplasmic and nuclear molding. Approximately 40% of the enriched tumor cell fraction consisted of normal-appearing connective tissue cells and inflammatory cells.
Cells were plated for testing in 3 different assay endpoints. In the DISC assay, the entire contents of the cell culture were cytocentrifuged onto permanent microscope slides and differentially stained to allow discrimination of normal and neoplastic cells and living and dead cells. […] The MTT assay measures mitochondrial metabolism in the entire cell culture. The redox assay measures total metabolic activity in the entire cell culture, using the Alamar Blue reagent to index the oxygen reduction potential of the culture medium. Because of the very low yield of viable tumor cells, only a small drug panel could be tested. Additionally, some drugs could be tested only in a single assay system.
At the conclusion of the culture period, there was 10% spontaneous attrition in viable tumor cell numbers. Formazan signal in the MTT assay was moderate, reflective of moderate cell metabolism, and allowing for an MTT assay of good quality. Percentage of tumor cells as a percentage of total viable cells at the conclusion of the culture was approximately 85. DISC and MTT assays were in reasonably good agreement. The overall technical quality of the assays was good, marred only by the low yield of tumor cells, which severely limited the scope of testing.
Results were compared with a database of assays which had similar technical characteristics, as the technical characteristics of these assays influence the in vitro results, along with the intrinsic drug resistance of the tumor cells. By controlling for technical characteristics such as spontaneous cell loss, metabolic signal at the conclusion of the culture, and tumor cell clustering, biological correlations are improved.

Series [2] relates to patients with very advanced stage IV breast cancer. Particulars: components of the vaccine regimen, one patient each. The method, then:
Breast cancer patients treated with a composition comprising AKCV-1 cells (administered in conjunction with GM-CSF) were evaluated. […] A small cohort of patients with very advanced stage 1V breast cancer were treated with a vaccine consisting of 10-20×10^6 viable, irradiated tumor cells (AKCV-1) admixed with an equal number of cryopreserved peripheral blood lymphocytes obtained by leukapheresis. Patients were pretreated with low-dose cyclophosphamide 300 mg/m^2 48-72 hrs prior to vaccine and received subcutaneous injections of GM-CSF just prior, and for 8 days after, vaccine inoculation.

`COc1cccc2c1C(=O)c1c(O)c3c(c(O)c1C2=O)C[C@@](O)(C(=O)CO)C[C@@H]3O[C@H]1C[C@H](N)[C@H](O)[C@H](C)O1` [Doxorubicin]: in series [1], the “ASSAY RESULT” value is recorded as “Intermediate” and the “ASSAY PREDICTED RESPONSE PROBABILITY” value is 30.
`COc1cc([C@@H]2c3cc4c(cc3[C@@H](O[C@@H]3O[C@@H]5CO[C@@H](C)O[C@H]5[C@H](O)[C@H]3O)[C@H]3COC(=O)[C@H]23)OCO4)cc(OC)c1O` [Etoposide]: in series [1], the “ASSAY RESULT” value was “Sensitive”, the “ASSAY PREDICTED RESPONSE PROBABILITY” value is 55 and the “activity in vitro (in words)” value is given as “above-average activity”.
On to `N.N.[Cl][Pt][Cl]` [Cisplatin], for which, in series [1], the “ASSAY RESULT” value is on record as “Intermediate” and the “ASSAY PREDICTED RESPONSE PROBABILITY” value is 30.
Consider `CC(=O)O[C@H]1C(=O)[C@@]2(C)[C@H]([C@H](OC(=O)c3ccccc3)[C@]3(O)C[C@H](OC(=O)[C@H](O)[C@@H](NC(=O)c4ccccc4)c4ccccc4)C(C)=C1C3(C)C)[C@]1(OC(C)=O)CO[C@@H]1C[C@@H]2O` [Taxol (Paclitaxel), Paclitaxel], for which, in series [1], the “ASSAY RESULT” value is “Sensitive”, the “ASSAY PREDICTED RESPONSE PROBABILITY” value was 62 and the “activity in vitro (in words)” value is “above-average activity”. For the same compound, in series [1] (ranking among the drugs tested), the “best drug in vitro” value is “best drug in vitro”.
For the compound `N.N.O=C([O-])C1(C(=O)[O-])CCC1.[Pt+2]` [(4HC) Carboplatin, Carboplatin], in series [1], the “ASSAY RESULT” value is “Resistant”, the “ASSAY PREDICTED RESPONSE PROBABILITY” value is listed as 5 and the “activity in vitro (in words)” value is “poor activity”.
Consider `O=P1(N(CCCl)CCCl)NCCCO1` (centres unmarked) [Cyclophosphamide], for which, in series [1], the “ASSAY RESULT” value is “Sensitive”, the “ASSAY PREDICTED RESPONSE PROBABILITY” value is given as 55 and the “activity in vitro (in words)” value is “above-average activity”. Besides, the Toxicity entry in series [2] is “exacerbation of pericardial effusion and atrial fibrillation, which spontaneously resolved”.
As for “GM-CSF: granulocyte macrophage colony stimulating factor, given as subcutaneous injections”, in series [2], the Toxicity entry was “increasing ascites and abdominal discomfort”.
As for `O=c1[nH]cc(F)c(=O)[nH]1` [Fluorouracil], in series [1], the “ASSAY RESULT” value was “Intermediate” and the “ASSAY PREDICTED RESPONSE PROBABILITY” value is 20.
Regarding `CCC1=C[C@@H]2CN(C1)Cc1c([nH]c3ccccc13)[C@@](C(=O)OC)(c1cc3c(cc1OC)N(C)[C@H]1[C@@](O)(C(=O)OC)[C@H](OC(C)=O)[C@]4(CC)C=CCN5CC[C@]31[C@@H]54)C2` [Vinorelbine], in series [1], the “ASSAY RESULT” value was “Intermediate” and the “ASSAY PREDICTED RESPONSE PROBABILITY” value was 30.
